According to PubChem BioAssay (NCI):
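Following 48 hours of exposure in 96-well plates, responses at five concentrations were used to interpolate endpoints linearly. Abbreviation: GI50, concentration required for 50% inhibition of growth. The concentration for full growth arrest is given as TGI.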

Columns and labels:
Experiment in all cases: NCI-60 cell line screen, 48 h
BT-549 breast = system: BT-549 breast
HCT-116 colon = system: HCT-116 colon
MCF7 breast = system: MCF7 breast
RXF 393 renal = system: RXF 393 renal
SK-OV-3 ovarian = system: SK-OV-3 ovarian
SN12C renal = system: SN12C renal
SNB-19 CNS = system: SNB-19 CNS
T-47D breast = system: T-47D breast

Compound | GI50 (BT-549 breast) [µM] | TGI (BT-549 breast) [µM] | GI50 (HCT-116 colon) [µM] | TGI (HCT-116 colon) [µM] | GI50 (MCF7 breast) [µM] | TGI (MCF7 breast) [µM] | GI50 (RXF 393 renal) [µM] | TGI (RXF 393 renal) [µM] | GI50 (SK-OV-3 ovarian) [µM] | TGI (SK-OV-3 ovarian) [µM] | GI50 (SN12C renal) [µM] | TGI (SN12C renal) [µM] | GI50 (SNB-19 CNS) [µM] | TGI (SNB-19 CNS) [µM] | GI50 (T-47D breast) [µM] | TGI (T-47D breast) [µM]
C=CCC(N[C@@H](CO)c1ccccc1)c1cn(Cc2ccccc2Cl)c(=O)n(Cc2ccccc2Cl)c1=O (stereo partly specified) | 76.2 | > 100 | 87.3 | > 100 | > 100 | > 100 | > 100 | > 100 | > 100 | > 100 | > 100 | > 100 | > 100 | > 100 | > 100 | > 100
COc1ccc(/C=C(/C(=O)N2CCN(c3ccccc3)CC2)c2cc(OC)c(OC)c(OC)c2)cc1N | 0.53 | > 100 | 0.356 | > 100 | 0.326 | > 100 | 0.272 | > 100 | 0.472 | > 100 | 0.643 | > 100 | 0.444 | > 100 |  | 
O=C1c2[nH]cc(CNC3CN4CCC3CC4)c2C(=O)c2c1c(O)c1ccccc1c2O (stereo unspecified) | 21.6 | 47.1 | 0.37 | 2.65 |  |  | 5.28 | 84.3 | 3.71 | 20.1 | 1.06 | 15.5 | 2.92 | 12.4 | 19 | 39.2
CC[C@H](NC(=O)[C@H]1CCCCN1C)C(=O)N(C)[C@H](C[C@@H](OC(C)=O)c1nc(C(=O)N[C@@H](Cc2ccccc2)C[C@H](C)C(=O)O)cs1)C(C)C | 0.00631 | 0.473 | 0.00366 | > 14.3 | < 0.00143 | > 14.3 | 0.00391 | > 14.3 | 0.00383 | > 14.3 | 0.00993 | > 14.3 | 0.00568 | > 14.3 | 0.0058 | > 14.3
Cc1cc(Cl)cc2c(N=Nc3ccc(S(N)(=O)=O)cc3)c(O)[nH]c12 | > 25 | > 25 | > 25 | > 25 | > 25 | > 25 | > 14.5 | > 25 | > 25 | > 25 | > 25 | > 25 | > 25 | > 25 | > 25 | > 25
Nc1ccccc1NC(=O)c1ccc(CNc2nccc(-c3cccnc3)n2)cc1 | 1.9 | 14.8 | 0.362 | > 100 | 0.716 | > 43.3 | 0.878 | 3.01 | 1.37 | > 28.7 | 2.34 | > 72.8 | 3.49 | > 100 | 0.657 | > 22.8
O=C(/C=C/c1ccco1)c1cc(F)c(Cl)cc1Cl |  |  | 14.9 | 31.6 | 14.1 | 63 | 19.1 | 37.7 | 24.5 | 80.1 | 22.9 | 57.5 | 20 | 48.4 | 18.1 | 56.8
CCOC(=O)C1=C(C)N=c2s/c(=C\c3ccccc3O)c(=O)n2C1c1ccc(OC)c2ccccc12 (stereo unspecified) | 14.6 | > 100 | 3.26 | 12.1 | 4.36 | 32 | 4.3 | 17.3 | 14 | 27 | 17.6 | 63.6 | 13.8 | 67.9 | 5.28 | 22.8
Cc1ccc(Cl)cc1Nc1nc(C(F)(F)F)ccc1C(=O)N/N=C/c1cccnc1 |  |  | 2.34 | 14.4 | 2.45 | 13.9 | 1.36 | 7.5 | 3.31 | 15.9 | 4.75 | 21.9 | 3.37 | 14.4 | 3.16 | 20.8
CN(C)c1ccc(/C=C/c2ccnc3c(O)cccc23)cc1 | 1.01 | > 100 | 0.401 | > 100 | 0.371 | > 100 | 0.813 | 15.1 | 0.461 | > 100 | 0.529 | > 100 | 0.395 | > 100 | 0.375 | > 100
CN1CCC(COc2cnc(-c3cccc(Cn4nc(-c5cccc(C#N)c5)ccc4=O)c3)nc2)CC1 | 4.66 | 15.2 | 2.41 | 6.35 | 3.46 | 14.9 | 1.49 | 3.08 | 5.93 | 18.5 | 6.89 | 19.6 | 4.45 | 25.7 | 2.27 | 5.99
O=C(O)/C=C/C(=O)N1Cc2cc3ccccc3nc2C1 |  | > 100 |  | > 100 |  | > 100 |  | > 100 |  | > 100 |  | > 100 |  | > 100 |  | > 100
OC(c1cc(-c2cccc(Cl)c2)nc2ccccc12)C1CCCCN1 (stereo unspecified) |  |  | 1.75 | 3.38 |  |  |  |  | 3.54 | 12.2 | 2.17 | 5.19 | 1.95 | 3.95 | 2.09 | 3.93
O=C(c1ccco1)c1nc2cc(C(F)(F)F)ccc2nc1C(F)(F)F | > 100 | > 100 | > 100 | > 100 | 40.6 | > 100 | > 100 | > 100 | > 100 | > 100 | > 100 | > 100 | > 100 | > 100 | 72 | > 100
C=C1CC2CCCC12C=O (stereo unspecified) |  | > 10 |  | > 10 |  | > 10 |  |  |  | > 10 |  | > 10 |  | > 10 |  | > 10
O=C(COc1ccc(/C=C2\COc3ccccc3C2=O)cc1)Nc1nccs1 |  |  | 3.75 | 12.8 | 3.92 | 14.2 |  |  | 30.9 | 69.5 | 5.69 | 25.7 | 12.8 | 25.4 | 16.1 | 38.8
